BigSolDB 2.1

CC(=O)N[C@@H](CCC(N)=O)C(=O)O
solubility (mole fraction)
Conditions | 283.15 K | 288.15 K | 293.15 K | 298.15 K | 303.15 K | 308.15 K | 313.15 K | 318.15 K | 323.15 K
in 2-butanone | 0.000381 | 0.000395 | 0.000425 | 0.000451 | 0.000479 | 0.000516 | 0.000564 | 0.000606 | 0.000658
in acetone | 0.00016 | 0.000192 | 0.000232 | 0.000275 | 0.000312 | 0.000342 | 0.000389 | 0.000422 | 0.000475
in acetonitrile | 0.000116 | 0.000128 | 0.000139 | 0.000152 | 0.000165 | 0.000179 | 0.000194 | 0.000205 | 0.000217
in ethanol | 0.000347 | 0.000389 | 0.000461 | 0.000543 | 0.000618 | 0.000685 | 0.000768 | 0.000845 | 0.000935
in ethyl acetate | 0.000101 | 0.000136 | 0.000186 | 0.000222 | 0.000271 | 0.000323 | 0.000362 | 0.000402 | 0.000431
in isobutanol | 0.000288 | 0.000309 | 0.000354 | 0.000415 | 0.000464 | 0.000527 | 0.000587 | 0.000635 | 0.000707
in methanol | 0.000974 | 0.00112 | 0.00132 | 0.00149 | 0.00176 | 0.00206 | 0.00243 | 0.00281 | 0.00318
in methyl acetate | 0.000141 | 0.000167 | 0.000201 | 0.000245 | 0.000277 | 0.000315 | 0.000351 | 0.000401 | 0.000445
in n-butanol | 8.9e-05 | 0.000102 | 0.000144 | 0.000193 | 0.000246 | 0.000314 | 0.000372 | 0.000439 | 0.000516
in n-propanol | 0.000371 | 0.000405 | 0.000434 | 0.000471 | 0.000498 | 0.00053 | 0.000564 | 0.000594 | 0.000637
in sec-butanol | 0.000347 | 0.000395 | 0.000452 | 0.000501 | 0.000554 | 0.000605 | 0.000661 | 0.000705 | 0.000757
in water | 0.00214 | 0.00233 | 0.00265 | 0.00297 | 0.00358 | 0.0043 | 0.00492 | 0.00587 | 0.00767
